# Laboratory results reported in ChEMBL document CHEMBL4359931, “Synthesis, biological evaluation and molecular docking studies of new amides of 4-bromothiocolchicine as anticancer agents” (Bioorg Med Chem, 2019).
# The source made the active and inactive calls. The calls are words filed in the database; no cut-off is given here.
# Legend:
# [1] = Antiproliferative activity against human ALL5 cells assessed as reduction in cell viability incubated for 120 hrs by MTT assay; type: functional, cell-based; settings: ALL5, 120 h
# A549 = test: Antiproliferative activity against human A549 cells assessed as reduction in cell viability incubated for 120 hrs by MTT assay; type: functional, cell-based; settings: A549, 120 h
# MCF7 [2] = test: Antiproliferative activity against human MCF7 cells assessed as reduction in cell viability incubated for 120 hrs by MTT assay; type: functional, cell-based; settings: MCF7, 120 h
# LoVo = test: Antiproliferative activity against human LoVo cells assessed as reduction in cell viability incubated for 120 hrs by MTT assay; type: functional, cell-based
# [3] = Antiproliferative activity against human LoVo/DX cells assessed as reduction in cell viability incubated for 120 hrs by MTT assay; type: functional, cell-based
# BALB/3T3 = test: Antiproliferative activity against mouse BALB/3T3 cells assessed as reduction in cell viability incubated for 120 hrs by MTT assay; type: cell-based; settings: BALB/3T3, 120 h
# [4] = Selectivity index, ratio of IC50 of mouse BALB/3T3 cells to IC50 of human ALL5 cells
# [5] = Selectivity index, ratio of IC50 of mouse BALB/3T3 cells to IC50 of human A549 cells
# [6] = Selectivity index, ratio of IC50 of mouse BALB/3T3 cells to IC50 of human MCF7 cells; type: toxicity; settings: BALB/3T3 cells versus MCF7 cells, read-out: Ratio IC50
# [7] = Selectivity index, ratio of IC50 of mouse BALB/3T3 cells to IC50 of human LoVo cells; type: toxicity; settings: BALB/3T3 cells versus LoVo cells, read-out: Ratio IC50
# [8] = Selectivity index, ratio of IC50 of mouse BALB/3T3 cells to IC50 of human LoVo/DX cells; type: toxicity; settings: BALB/3T3 cells versus LoVo/DX cells, read-out: Ratio IC50
# [9] = Resistance index, ratio of IC50 of human LoVo/DX cells to IC50 of human LoVo cells; type: functional
# [10] = Cell cycle arrest in human ALL5 cells assessed as accumulation in G2 phase at 5 times of antiproliferative IC50 incubated for 24 hrs by propidium iodide based flow cytometry (reference value: 10.6 %); type: functional
# [11] = Cell cycle arrest in human ALL5 cells assessed as accumulation in G2 phase at 5 times of antiproliferative IC50 incubated for 48 hrs by propidium iodide based flow cytometry (reference value: 11.2 %); type: functional
# [12] = Cell cycle arrest in human ALL5 cells assessed as accumulation in G2 phase at 5 times of antiproliferative IC50 incubated for 72 hrs by propidium iodide based flow cytometry (reference value: 11.3 %); type: functional
# [13] = Cell cycle arrest in human ALL5 cells assessed as accumulation in G1 phase at 5 times of antiproliferative IC50 incubated for 24 hrs by propidium iodide based flow cytometry (reference value: 68.1 %); type: functional
# [14] = Cell cycle arrest in human ALL5 cells assessed as accumulation in G1 phase at 5 times of antiproliferative IC50 incubated for 48 hrs by propidium iodide based flow cytometry (reference value: 67.4 %); type: functional
# [15] = Cell cycle arrest in human ALL5 cells assessed as accumulation in G1 phase at 5 times of antiproliferative IC50 incubated for 72 hrs by propidium iodide based flow cytometry (reference value: 59.7 %); type: functional
# [16] = Cell cycle arrest in human ALL5 cells assessed as accumulation in subG1 phase at 5 times of antiproliferative IC50 incubated for 24 hrs by propidium iodide based flow cytometry (reference value: 10.5 %); type: functional
# [17] = Cell cycle arrest in human ALL5 cells assessed as accumulation in subG1 phase at 5 times of antiproliferative IC50 incubated for 48 hrs by propidium iodide based flow cytometry (reference value: 11 %); type: functional
# [18] = Cell cycle arrest in human ALL5 cells assessed as accumulation in subG1 phase at 5 times of antiproliferative IC50 incubated for 72 hrs by propidium iodide based flow cytometry (reference value: 15.5 %); type: functional
# MCF7 [19] = test: Cell cycle arrest in human MCF7 cells assessed as accumulation in G2 phase at 5 times of antiproliferative IC50 incubated for 24 hrs by propidium iodide based flow cytometry (reference value: 22.4 %); type: functional
# MCF7 [20] = test: Cell cycle arrest in human MCF7 cells assessed as accumulation in G2 phase at 5 times of antiproliferative IC50 incubated for 48 hrs by propidium iodide based flow cytometry (reference value: 16 %); type: functional
# MCF7 [21] = test: Cell cycle arrest in human MCF7 cells assessed as accumulation in G2 phase at 5 times of antiproliferative IC50 incubated for 72 hrs by propidium iodide based flow cytometry (reference value: 18.6 %); type: functional
# MCF7 [22] = test: Cell cycle arrest in human MCF7 cells assessed as accumulation in G1 phase at 5 times of antiproliferative IC50 incubated for 24 hrs by propidium iodide based flow cytometry (reference value: 49.9 %); type: functional
# MCF7 [23] = test: Cell cycle arrest in human MCF7 cells assessed as accumulation in G1 phase at 5 times of antiproliferative IC50 incubated for 48 hrs by propidium iodide based flow cytometry (reference value: 40.8 %); type: functional
# MCF7 [24] = test: Cell cycle arrest in human MCF7 cells assessed as accumulation in G1 phase at 5 times of antiproliferative IC50 incubated for 72 hrs by propidium iodide based flow cytometry (reference value: 58 %); type: functional
# MCF7 [25] = test: Cell cycle arrest in human MCF7 cells assessed as accumulation in subG1 phase at 5 times of antiproliferative IC50 incubated for 24 hrs by propidium iodide based flow cytometry (reference value: 7.79 %); type: functional
# MCF7 [26] = test: Cell cycle arrest in human MCF7 cells assessed as accumulation in subG1 phase at 5 times of antiproliferative IC50 incubated for 48 hrs by propidium iodide based flow cytometry (reference value: 9.19 %); type: functional
# MCF7 [27] = test: Cell cycle arrest in human MCF7 cells assessed as accumulation in subG1 phase at 5 times of antiproliferative IC50 incubated for 72 hrs by propidium iodide based flow cytometry (reference value: 3.59 %); type: functional
# MCF7 [28] = test: Cell cycle arrest in human MCF7 cells assessed as accumulation in S phase at 5 times of antiproliferative IC50 incubated for 24 hrs by propidium iodide based flow cytometry (reference value: 19.9 %); type: functional
# MCF7 [29] = test: Cell cycle arrest in human MCF7 cells assessed as accumulation in S phase at 5 times of antiproliferative IC50 incubated for 48 hrs by propidium iodide based flow cytometry (reference value: 34 %); type: functional
# MCF7 [30] = test: Cell cycle arrest in human MCF7 cells assessed as accumulation in S phase at 5 times of antiproliferative IC50 incubated for 72 hrs by propidium iodide based flow cytometry (reference value: 19.8 %); type: functional
# [31] = Cell cycle arrest in human ALL5 cells assessed as accumulation in S phase at 5 times of antiproliferative IC50 incubated for 24 hrs by propidium iodide based flow cytometry (reference value: […]); type: functional
# [32] = Cell cycle arrest in human ALL5 cells assessed as accumulation in S phase at 5 times of antiproliferative IC50 incubated for 48 hrs by propidium iodide based flow cytometry (reference value: 10.3 %); type: functional
# [33] = Cell cycle arrest in human ALL5 cells assessed as accumulation in S phase at 5 times of antiproliferative IC50 incubated for 72 hrs by propidium iodide based flow cytometry (reference value: 13.5 %); type: functional
# Homo sapiens [34] = species: Homo sapiens; test: Induction of cell cycle arrest in human ALL5 cells assessed as increase in 4 N DNA at 5 times of antiproliferative IC50 incubated for 48 hrs by propidium iodide based flow cytometry; type: functional
# Homo sapiens [35] = species: Homo sapiens; test: Induction of cell death in human ALL5 cells assessed as decrease in 4 N DNA at 5 times of antiproliferative IC50 incubated for 72 hrs by propidium iodide based flow cytometry; type: functional
# Homo sapiens [36] = species: Homo sapiens; test: Induction of cell cycle arrest in human ALL5 cells assessed as increase in 4 N DNA at 5 times of antiproliferative IC50 incubated for 24 hrs by propidium iodide based flow cytometry; type: functional
structure (smiles),measurement,setting,value
CCCCCCCCCC(=O)N[C@H]1CCc2c(Br)c(OC)c(OC)c(OC)c2-c2ccc(SC)c(=O)cc21,IC50,[1],196 nM
same,IC50,A549,881 nM
same,IC50,MCF7 [2],957 nM
same,IC50,LoVo,482 nM
same,IC50,[3],867 nM
same,IC50,BALB/3T3,98.4 nM
same,Ratio IC50,[4],0.5
same,Ratio IC50,[5],0.1
same,selectivity ratio,[6],0.1
same,selectivity ratio,[7],0.2
same,selectivity ratio,[8],0.1
same,Ratio IC50,[9],1.8
CCN(CC)C(=O)N[C@H]1CCc2c(Br)c(OC)c(OC)c(OC)c2-c2ccc(SC)c(=O)cc21,IC50,[1],55.3 nM
same,IC50,A549,99.1 nM
same,IC50,MCF7 [2],97.3 nM
same,IC50,LoVo,53.8 nM
same,IC50,[3],621 nM
same,IC50,BALB/3T3,80.4 nM
same,Ratio IC50,[4],1.5
same,Ratio IC50,[5],0.8
same,selectivity ratio,[6],0.8
same,selectivity ratio,[7],1.5
same,selectivity ratio,[8],0.1
same,Ratio IC50,[9],11.6
COc1c(Br)c2c(c(OC)c1OC)-c1ccc(OC)c(=O)cc1[C@@H](NC(C)=O)CC2,IC50,[1],5.9 nM
same,IC50,A549,104 nM
same,IC50,MCF7 [2],26.6 nM
same,IC50,LoVo,83.6 nM
same,IC50,[3],1550 nM
same,IC50,BALB/3T3,142 nM
same,Ratio IC50,[4],24.1
same,Ratio IC50,[5],1.4
same,selectivity ratio,[6],5.3
same,selectivity ratio,[7],1.7
same,selectivity ratio,[8],0.1
same,Ratio IC50,[9],18.7
same,Activity,[10],16.9%
same,Activity,[11],18.6%
same,Activity,[12],11.2%
same,Activity,[13],51.2%
same,Activity,[14],35%
same,Activity,[15],26.9%
same,Activity,[16],17.1%
same,Activity,[17],26.4%
same,Activity,[18],39.7%
same,Activity,MCF7 [19],74.9%
same,Activity,MCF7 [20],60.8%
same,Activity,MCF7 [21],56.1%
same,Activity,MCF7 [22],9.79%
same,Activity,MCF7 [23],12.5%
same,Activity,MCF7 [24],13.2%
same,Activity,MCF7 [25],7.37%
same,Activity,MCF7 [26],12.1%
same,Activity,MCF7 [27],16.4%
same,Activity,MCF7 [28],7.97%
same,Activity,MCF7 [29],14.6%
same,Activity,MCF7 [30],14.3%
same,Activity,[31],14.8%
same,Activity,[32],20%
same,Activity,[33],22.2%
same,Activity,Homo sapiens [34],Active
same,Activity,Homo sapiens [35],Active
COc1c(Br)c2c(c(OC)c1OC)-c1ccc(SC)c(=O)cc1[C@@H](N)CC2,IC50,[1],91.4 nM
same,IC50,A549,115 nM
same,IC50,MCF7 [2],178 nM
same,IC50,LoVo,125 nM
same,IC50,[3],700 nM
same,IC50,BALB/3T3,1260 nM
same,Ratio IC50,[4],13.8
same,Ratio IC50,[5],11
same,selectivity ratio,[6],7.1
same,selectivity ratio,[7],10.1
same,selectivity ratio,[8],1.8
same,Ratio IC50,[9],5.6
same,Activity,Homo sapiens [36],Active
same,Activity,Homo sapiens [34],Active
same,Activity,Homo sapiens [35],Active
